Consider two molecules from article PMC6331615, “Aminoacyl sulfonamide assembly in SB-203208 biosynthesis” (Nature Communications, 2019).

One series deals with T1, SbzB (Streptomyces sp., UniProt P0DY32).
T1 construct: pET28a NdeI/HindIII, His-tagged, E. coli Rosetta2 (DE3), Ni-NTA
T1 sequence (P0DY32 1-532): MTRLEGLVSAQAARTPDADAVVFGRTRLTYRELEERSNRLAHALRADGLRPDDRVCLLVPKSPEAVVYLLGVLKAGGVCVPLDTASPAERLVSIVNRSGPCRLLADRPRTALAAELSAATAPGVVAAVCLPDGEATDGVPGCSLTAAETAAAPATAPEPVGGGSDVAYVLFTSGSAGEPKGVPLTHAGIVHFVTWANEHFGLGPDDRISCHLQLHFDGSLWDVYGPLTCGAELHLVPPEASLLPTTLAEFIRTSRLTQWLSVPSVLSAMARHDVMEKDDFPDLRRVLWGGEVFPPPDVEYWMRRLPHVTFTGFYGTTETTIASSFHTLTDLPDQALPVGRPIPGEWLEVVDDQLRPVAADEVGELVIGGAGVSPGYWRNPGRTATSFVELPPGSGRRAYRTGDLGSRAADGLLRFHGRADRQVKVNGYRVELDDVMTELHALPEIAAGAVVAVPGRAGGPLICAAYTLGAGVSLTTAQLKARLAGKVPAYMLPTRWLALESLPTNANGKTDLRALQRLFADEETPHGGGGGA
As to the kind of experiment: malachite green adenylation assay with hydroxylamine; chiral HPLC. In kind it is biochemical. The settings on record: 0.5 mM ATP, 10 mM MgCl2, Tris-HCl pH 7.5, 30 °C.

Substrate in series [1]: N[C@@H](CS)C(=O)O
Briefly: LC-MS quantification of substrate consumption. In kind it is biochemical, Streptomyces sp. The settings on record: 50 mM Tris pH 9.0, 30 °C, TCEP, 6 μM SbzM, 2 min, n = 2.

As for `C[C@H](c1ccccc1)[C@H](N)C(=O)O` [(2S, 3R)-β-methylphenylalanine], the “malachite green adenylation assay with hydroxylamine; chiral HPLC” value on SbzB is on record as “SbzB indeed selectively adenylated (2S, 3R)-β-methylphenylalanine as the best substrate”.

B1: SbzM (Streptomyces sp.) (protein)
chain: MSTQQVIAMLTEELHDLDPAERQAKTVELLAVFGRAKAEALQPEERPEAPDTKPGPLLICDWAADLGLDGTTQQLGIEVAPGPTKVTKTADATGHSLASSGHVGADILHVPAGSGFAPHTHPGDHLLFVLAGTGTIAVAGEIVRTRPGQVYMVQGDITHAVGAVTDHMILSVGAPHRRLDSPDRQELTAYAALLGELGEITCRLCDISAAGGEELAAKGCTHSPHRFG
notes: pET28a NdeI/HindIII, His-tagged, E. coli Rosetta2 (DE3), Ni-NTA; tag cleavage not mentioned
In the case of B1, the Km (as a rule, the concentration of substrate that gives half-maximal velocity) in series [1] is reported as 0.53 ± 0.08 mM.
